# Read-outs that look alike come from different tables or passages of the source.
# Columns and labels:
# Assay in all cases: Agar dilution test on mDixon agar, minimal inhibitory concentration (MIC)
# Type in all cases: cell-based
# [1] = tested on: M. globosa; conditions: agar dilution, pH 5.5, 32° C., up to 14 days; for MIC: Malassezia globosa, read-out: Minimal inhibitory concentration (MIC)
# Procedure: (§1) The fatty acid esters and their mixtures were tested for growth inhibition against Malassezia. The following reference strains were included:
# (§2) Tests were performed on solid media using agar dilution tests. Stock solutions of test substances were prepared in mDixon-Agar (cf. Table 2). Lower test concentrations were obtained by diluting stock solutions with fresh agar.
# (§3) Preparation of liquid agar was carried out in temperated water bath. Required amounts of test substances were weighed in 130 ml of Dixon Agar and mixed with fresh Dixon-Agar to reach desired concentrations of test substances. Agar solutions with test substances were then poured into 24 well-plates. The pH value in all assays was maintained at 5.5. Preparation of test substances was done on weight per volume base. All results are expressed in parts per million (1 ppm=0.0001%).
# (§4) Briefly, Malassezia strains were cultivated on selective agar for pathogenic fungi (Merck) and overlaid with a thin layer of cold-sterilized olive oil. […] Incubation was carried out at 32° C. over a maximal duration of 14 days with regular inspection and documentation of growth status. Minimal inhibitory concentrations (MICs) were determined as the lowest concentrations of test compound without visible growth. Each experiment was repeated to confirm results.
# [2] = tested on: M. sympodialis; conditions: up to 14 days; for MIC: 336 h, read-out: Minimal inhibitory concentration (MIC)
# Procedure: as §1, §2, §3, §4
# [3] = tested on: M. pachydermatis; conditions: agar dilution, pH 5.5, 32° C., up to 14 days; for MIC: Malassezia pachydermatis, read-out: Minimal inhibitory concentration (MIC)
# Procedure: as §1, §2, §3, §4
# [4] = tested on: M. furfur; conditions: agar dilution, pH 5.5, 32° C., up to 14 days; for MIC: Malassezia furfur, read-out: Minimal inhibitory concentration (MIC)
# Procedure: as §1, §2, §3, §4
# [5] = tested on: M. restricta; conditions: M. restricta CBS 7877, agar dilution, pH 5.5, 32° C., up to 14 days; for MIC: 336 h, read-out: Minimal inhibitory concentration (MIC)
# Procedure: as §1, §2, §3, §4
# [6] = CBS7966, 336 h, M. globosa CBS 7966
# [7] = pH 5.5, M. sympodialis ATCC 42132, pH 5.5, 32° C.
# [8] = pH 5.5, M. sympodialis CBS 7222, pH 5.5, 32° C.
# [9] = pH 5.5, M. sympodialis CBS 7979, pH 5.5, 32° C.
# [10] = pH 5.5, M. sympodialis DSM 6171, pH 5.5, 32° C.
# [11] = CBS1879, 336 h, M. pachydermatis CBS 1879
# [12] = CBS1878, 336 h, M. furfur CBS 1878
# [13] = CBS7019, 336 h, M. furfur CBS 7019
# [14] = CBS7705, 336 h, M. globosa CBS 7705
# [15] = M. sympodialis ATCC 42132, pH 5.5, 32° C.
# [16] = M. sympodialis CBS 7222, pH 5.5, 32° C.
# [17] = M. sympodialis CBS 7979, pH 5.5, 32° C.
# [18] = M. sympodialis DSM 6171, pH 5.5, 32° C.
Compound,"MIC ([1]; 336 h, M. globosa PM1)","MIC [1, 6]","MIC [2, 7]","MIC [2, 8]","MIC [2, 9]","MIC [2, 10]",MIC [5],Minimal inhibitory concentration (MIC) ([1]; M. globosa CBS 7966),Minimal inhibitory concentration (MIC) ([1]; M. globosa PM1),Minimal inhibitory concentration (MIC) ([4]; M. furfur CBS 1878),Minimal inhibitory concentration (MIC) ([4]; M. furfur CBS 7019),Minimal inhibitory concentration (MIC) [5],"Minimal inhibitory concentration (MIC) [2, 15]","Minimal inhibitory concentration (MIC) [2, 16]","Minimal inhibitory concentration (MIC) [2, 17]","Minimal inhibitory concentration (MIC) [2, 18]",further results
CCCCCCCC(=O)OCC [Ethyl caprylate],1000 µg/mL,1000 µg/mL,1000 µg/mL,1000 µg/mL,1000 µg/mL,1000 µg/mL,4000 µg/mL,,,,,,,,,,"MIC ([3]; 336 h, M. pachydermatis 1892): 1000 µg/mL; MIC [3, 11]: < 500 µg/mL; MIC [4, 12]: > 20000 µg/mL; MIC [4, 13]: 10000 µg/mL"
"CCCCCCCCCCC(O)CO (stereo not drawn) [1,2-Dodecandiol]",40000 µg/mL,40000 µg/mL,2000 µg/mL,4000 µg/mL,4000 µg/mL,4000 µg/mL,8000 µg/mL,,,,,,,,,,"MIC [1, 14]: 40000 µg/mL"
PEG-9-undecylenoate,,,,,,,,10000 ppm,8000 ppm,20000 ppm,>20000 ppm,4000 ppm,,,,,Minimal inhibitory concentration (MIC) ([3]; M. pachydermatis 1892): 8000 ppm; Minimal inhibitory concentration (MIC) ([3]; M. pachydermatis CBS 1879): 8000 ppm
PEG9-caprylate,,,,,,,,2000 ppm,2000 ppm,20000 ppm,10000 ppm,2000 ppm,10000 ppm,10000 ppm,8000 ppm,8000 ppm,Minimal inhibitory concentration (MIC) ([3]; M. pachydermatis 1892): 4000 ppm; Minimal inhibitory concentration (MIC) ([3]; M. pachydermatis CBS 1879): 2000 ppm
"CCCCCCCC(=O)O [Caprylic acid, caprylic acid]",500 µg/mL,1000 µg/mL,330 µg/mL,330 µg/mL,1000 µg/mL,500 µg/mL,200 µg/mL,,,,,,,,,,"MIC ([3]; 336 h, M. pachydermatis 1892): 200 µg/mL; MIC [3, 11]: 100 µg/mL; MIC [4, 12]: 1000 µg/mL; MIC [4, 13]: 2000 µg/mL"
"OCCCO [1,3-Propandiol]",,,,,,,,40000 ppm,33000 ppm,,,33000 ppm,40000 ppm,33000 ppm,80000 ppm,80000 ppm,Minimal inhibitory concentration (MIC) ([1]; M. globosa CBS 7705): 80000 ppm
"CCCCCCC(O)CO (stereo not drawn) [1,2-Octandiol]",2000 µg/mL,2000 µg/mL,2000 µg/mL,2000 µg/mL,2000 µg/mL,2000 µg/mL,1000 µg/mL,,,,,,,,,,"MIC [1, 14]: 4000 µg/mL"
CCCCCCCC(=O)OCC(CO)OC(=O)CCCCCCC (stereo not drawn) [3-Hydroxypropyl dicaprylate],,,,,,,,8000 ppm,8000 ppm,>20000 ppm,20000 ppm,,4000 ppm,20000 ppm,20000 ppm,20000 ppm,

# — US12274775B2, “Fatty acid esters as anti-Malassezia agents” (SYMRISE AG, priority 2019, dated 2025)
